Laboratory results from ChEMBL document CHEMBL3430912, “GSK Tres Cantos Anti-Kinetoplastid Screening (TCAKS) Data”.

Key:
Trypanosoma cruzi [1] = assay: GSK_TCAKS: pIC50 Trypanosoma cruzi viability assay using beta-GAL activity. This assay was run at single shot at 5uM compound concentration per well. The biological reagents consisted of NIH-3T3 host cells and trypomastigotes parasitic cells; both cell types were set to a 3.3 * 10^5 cells/mL dilution in assay DMEM by means of a CASY cell counter device using a 60um capillary. 6 uL of the mixture were dispensed per well (about 1 * 10^3 host-cells and 1 * 10^3 parasites) with a Multidrop Combi dispenser. […] In all wells, the percentage of DMSO never exceeded 0.5%. Plates incubated for four days at 37C, 5% CO2. The substrate used for the assay fluorescence intensity (FLINT) readout was resorufin-beta-D-galactopiranoside (Sigma-Aldrich) at 5uM per well. It was diluted in PBS supplemented with the soft detergent Igepal (Fluka).; format: functional, organism-based, Mus musculus; details: Tulahuen, NIH3T3
Trypanosoma cruzi [2] = assay: (§1) GSK_TCAKS: pIC50 Trypanosoma cruzi Imaging: Infected Cells. […] Cells were then washed once with PBS before infection. T. cruzi trypomastigotes, collected at days 5 to 8 after infection from LLC-MK2 parasite infected cultures, were allowed to swim out for 4h at 37C from a centrifuged pellet (2,500 rpm/10 min/room temperature). Trypomastigotes were then collected and counted in a CASY Cell Counter. Trypomastigotes, in supplemented DMEM, were added to H9c2 cultures in a multiplicity of infection of 1 and incubated for 18 h. Cells were washed once with PBS before incubation of the infected H9c2 monolayer with trypsin (Life-Technologies) to detach cells from the flask. Cells were counted in a CASY Cell Counter using a 150 um capillary and their density set at 5 * 10^4 cells per mL in supplemented assay DMEM. Infected H9c2 were dispensed into 384-well poly-lysine coated assay plates at 50uL per well using a Multidrop Combi dispenser. After seeding them, the plates were incubated at 37C, 5% CO2 for 72h. Cultures were then fixed and stained by addition of 50 uL of a solution containing 8% formaldehyde and 4 uM DRAQ5 DNA dye (BioStatus, UK) per well. […] Five images were collected per well for reliable statistical analysis. Automated image analysis was performed with a script developed on Acapella High Content Imaging and Analysis Software (PerkinElmer). Output: percentage of infected cells per well as a second infection marker.; format: functional, organism-based, Rattus norvegicus; details: H9c2, 4 h
Trypanosoma cruzi [3] = assay: GSK_TCAKS: pIC50 Trypanosoma cruzi Imaging: Amastigotes/Cell. […] Cells were then washed once with PBS before infection. T. cruzi trypomastigotes, collected at days 5 to 8 after infection from LLC-MK2 parasite infected cultures, were allowed to swim out for 4h at 37C from a centrifuged pellet (2,500 rpm/10 min/room temperature). Trypomastigotes were then collected and counted in a CASY Cell Counter. Trypomastigotes, in supplemented DMEM, were added to H9c2 cultures in a multiplicity of infection of 1 and incubated for 18 h. Cells were washed once with PBS before incubation of the infected H9c2 monolayer with trypsin (Life-Technologies) to detach cells from the flask. Cells were counted in a CASY Cell Counter using a 150 um capillary and their density set at 5 * 10^4 cells per mL in supplemented assay DMEM. Infected H9c2 were dispensed into 384-well poly-lysine coated assay plates at 50uL per well using a Multidrop Combi dispenser. After seeding them, the plates were incubated at 37C, 5% CO2 for 72h. Cultures were then fixed and stained by addition of 50 uL of a solution containing 8% formaldehyde and 4 uM DRAQ5 DNA dye (BioStatus, UK) per well. […] Five images were collected per well for reliable statistical analysis. Automated image analysis was performed with a script developed on Acapella High Content Imaging and Analysis Software (PerkinElmer). Output: number of amastigotes per cell as infection level measurement.; format: functional, organism-based, Rattus norvegicus; details: H9c2, 4 h
Trypanosoma cruzi [4] = assay: as §1, with “H2C9” for “Trypanosoma cruzi”, “H9c2 Host Cardiomyocytes.” for “Infected Cells.”, “Number” for “percentage”, “H9c2 Host Cardiomyocytes nuclei to determine drug-related cytotoxicity.” for “infected cells per well as a second infection marker.”; format: functional, organism-based, Rattus norvegicus; details: H9c2, 4 h
Leishmania donovani [5] = assay: GSK_TCAKS: pIC50 Leishmania donovani viability assay using fluorescence intensity. Assay plates (1536-well) were prepared by adding 30nL per well of compound. For single shot assay, the final compound concentration was 5uM. […] Briefly, eGFP LdBOB axenic amastigotes were harvested, fixed and counted in a CASY cell counter (Roche-Applied Science). A final concentration of 1.5 * 10^5 cells per well were prepared in amastigote media containing 500 U/mL penicillin/streptomycin (Invitrogen) and 6uL was dispensed to each experimental well using a Multidrop Combi dispenser (Thermo Scientific). 6uL of assay media was dispensed to control columns used as reference for 100% compound response. Following incubation for 72 h at 37C, 5% CO2, 2 uL of resazurin was added to each well at a final concentration of 0.5 mM in phosphate buffered saline (PBS) with IGEPAL (Sigma-Aldrich), 0.05% (v/v).; format: functional, organism-based
Leishmania donovani [6] = assay: (§2) GSK_TCAKS: pIC50 Leishmania donovani Imaging: Infected Macrophages. Assay plates (384-well) were prepared by adding 250nL of compound to each well. For single shot assay, the final compound concentration was 5 uM. […] Automated image analysis was performed with a script developed on Acapella High Content Imaging and Analysis Software (PerkinElmer). Output: Percent of infected macrophage cells were reported for each well.; format: functional, organism-based, Homo sapiens; details: THP-1
Leishmania donovani [7] = assay: as §2, with “Amastigotes/Macrophages.” for “Infected Macrophages.”, “Average number” for “Percent”, “amastigotes per” for “infected”, “cell” for “cells”; format: functional, organism-based, Homo sapiens; details: THP-1
Leishmania donovani [8] = assay: as §2, with “THP-1 Host” for “Infected”, “THP-1 cell count” for “Percent of infected macrophage cells”; format: functional, organism-based, Homo sapiens
[9] = system: Trypanosoma brucei brucei; assay: GSK_TCAKS: pIC50 Trypanosoma brucei viability assay using fluorescence intensity. Assay plates (1536-well) were prepared by dispensing 25nL of compound solution per well using an Echo acoustic dispenser (Labcyte).; format: functional, organism-based; details: Lister 427, 2 h
[10] = system: Trypanosoma brucei brucei; assay: GSK_TCAKS: pIC50 Trypanosoma brucei viability assay using luminiscence. Assay plates (1536-well) were prepared. T. brucei cultures were harvested and counted in a CASY cell counter. A parasite suspension was prepared at a final concentration of 5 * 10^4 cells/mL in complete HMI9 medium and 6uL was dispensed to all wells containing compounds using a Multidrop Combi dispenser. 6uL of HMI9 media with 0.4% DMSO were dispensed to control columns. Plates were incubated for 24 h at 37C, 5% CO2 then tempered for 10 min at room temperature. ATP content was quantified by adding 4 uL of CellTiter-Glo Reagent (Promega) according to the manufacturer's instructions. Luminescence was measured using a ViewLux.; format: functional, organism-based; details: Lister 427, CASY
[11] = GSK_TCAKS: pIC50 HepG2 human cell line viability assay using luminiscence. […] Seeding density was checked to ensure that new mono-layers were not more than 50% confluent at the time of harvesting. Cell suspension was added to 500 mL of the same medium at a final density of 1.2 * 10^5 cells/mL. This cell suspension was dispensed (25 uL, 3000 cells per well) into 384-well clear-bottom plates using a Multidrop Combi dispenser. Prior to addition of the cell suspension, the screening compounds (250 nL) were pre-dispensed into the plates with an Echo liquid handler. Plates were incubated for 48 h at 37C, 5% CO2. After incubation, plates equilibrated at room temperature for 30 min before proceeding to develop the luminescent signal. The signal developer, CellTiter-Glo Reagent, was allowed to equilibrate at room temperature for 30 min and added to the plates (25uL per well) using a Multidrop Combi dispenser. Plates were left for 10 min at room temperature for stabilization and then read using a ViewLux.; format: toxicity, cell-based
NIH3T3 = assay: GSK_TCAKS: pIC50 NIH 3T3 cell line viability assay using luminiscence. Tissue culture surface treated assay plates (1536-well) were used. […] The 100% cells survival control was determined exposing the host-cells to a 0.5% DMSO concentration, whereas the 100% toxicity control was achieved by seeding the cells in presence of Amphotericin B at 50uM. Plates were incubated for four days at 37C, 5% CO2. The assay readout was developed by addition of 5uL of CellTiter-Glo Reagent following the manufacturer's instructions. Luminiscence was measured using a ViewLux.; format: functional, cell-based; details: Mus musculus, NIH3T3, 96 h
[12] = biological target: Sterol 14-alpha demethylase (Trypanosoma cruzi (strain CL Brener), UniProt Q7Z1V1); assay: GSK_TCAKS: pIC50 CYP51 from Trypanosoma cruzi.; format: functional
Sterol 14-alpha demethylase, sequence (Q7Z1V1 whole entry): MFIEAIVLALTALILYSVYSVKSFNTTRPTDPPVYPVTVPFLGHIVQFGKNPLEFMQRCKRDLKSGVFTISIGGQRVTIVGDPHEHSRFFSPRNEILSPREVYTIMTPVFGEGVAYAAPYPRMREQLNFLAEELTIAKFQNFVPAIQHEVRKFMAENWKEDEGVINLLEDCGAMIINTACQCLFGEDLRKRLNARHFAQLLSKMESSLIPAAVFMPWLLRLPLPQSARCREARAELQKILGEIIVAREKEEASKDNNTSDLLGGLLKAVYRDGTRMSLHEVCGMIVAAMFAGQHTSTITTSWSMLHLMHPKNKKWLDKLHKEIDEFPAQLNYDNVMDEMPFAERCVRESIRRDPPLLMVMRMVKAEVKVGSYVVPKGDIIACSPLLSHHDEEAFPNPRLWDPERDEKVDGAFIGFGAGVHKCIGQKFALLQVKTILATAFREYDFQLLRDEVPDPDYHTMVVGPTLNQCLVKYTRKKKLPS

SMILES	IC50 (Trypanosoma cruzi [1])	IC50 (Trypanosoma cruzi [2])	IC50 (Trypanosoma cruzi [3])	IC50 (Trypanosoma cruzi [4])	IC50 (Leishmania donovani [5])	IC50 (Leishmania donovani [6])	IC50 (Leishmania donovani [7])	IC50 (Leishmania donovani [8])	IC50 [9]	IC50 [10]	IC50 at 48 h [11]	IC50 (NIH3T3)	IC50 [12]
O=C(CCCn1cnc([N+](=O)[O-])n1)Nc1cccc(Cl)c1	0.2 µM	0.501 µM	0.158 µM	> 50.1 µM	> 50.1 µM	> 50.1 µM	> 50.1 µM	> 50.1 µM	5.01 µM	> 39.8 µM	> 100 µM	> 50.1 µM	50.1 µM
CC1=C(C(=O)Nc2ccc(Cl)cc2)C(c2ccncc2)n2ncc(C(=O)Nc3ccccc3)c2N1 (centres undefined)	0.02 µM	0.02 µM	0.02 µM	> 50.1 µM	0.126 µM	> 50.1 µM	> 50.1 µM	12.6 µM	3.16 µM	> 39.8 µM	79.4 µM	31.6 µM	0.126 µM
O=C(NCCc1cccnc1)c1ccc(-c2ccccc2F)o1	0.112 µM	0.2 µM	0.2 µM	> 50.1 µM	20 µM	> 50.1 µM	> 50.1 µM	> 50.1 µM	31.6 µM	> 39.8 µM	> 100 µM	39.8 µM	0.0631 µM
Cc1ccc2c(c1)-c1onc(C(=O)N3CCCCC3c3cccnc3)c1CO2 (centres undefined)	0.1 µM	0.126 µM	0.126 µM	> 50.1 µM	31.6 µM	> 50.1 µM	39.8 µM	39.8 µM	39.8 µM	> 39.8 µM	50.1 µM	20 µM	0.1 µM
COc1ccc(-c2cc(C)no2)cc1S(=O)(=O)Nc1ccc(F)c(Cl)c1	1.58 µM	3.16 µM	3.98 µM	50.1 µM	25.1 µM	25.1 µM	20 µM	31.6 µM	15.8 µM	25.1 µM	79.4 µM	25.1 µM	> 100 µM
COc1ccc(NS(=O)(=O)c2cc(-c3cc(C)n[nH]3)ccc2C)cc1OC	1.41 µM	2 µM	1.26 µM	> 50.1 µM	1 µM	10 µM	7.94 µM	> 50.1 µM	0.316 µM	0.631 µM	> 100 µM	> 50.1 µM	39.8 µM
O=S(=O)(c1cccc(CSc2nnc(-c3ccc4c(c3)OCO4)o2)c1)N1CCOCC1	0.224 µM	0.1 µM	0.0398 µM	25.1 µM	0.501 µM	0.794 µM	0.251 µM	> 50.1 µM	31.6 µM	> 39.8 µM	> 100 µM	15.8 µM	12.6 µM
O=C(Nc1ccc(C(=O)N2CCCC2c2ccc3c(c2)OCCCO3)cc1)c1ccco1 (centres undefined)	0.501 µM	1 µM	0.631 µM	> 50.1 µM	0.794 µM	6.31 µM	3.16 µM	> 50.1 µM	0.2 µM	0.316 µM	> 100 µM	> 50.1 µM	63.1 µM
